Data reported in article PMC2045123 (Analytical and Bioanalytical Chemistry, 2007).
Entries after “also recorded” stand apart in the source; their conditions may differ. Read-outs that look alike come from different tables or passages of the source.

Tests used:
hAR = molecular target: T1, hAR (Homo sapiens, UniProt P10275); assay: lacZ-based; type: cell-based
T1 sequence (P10275 1-920): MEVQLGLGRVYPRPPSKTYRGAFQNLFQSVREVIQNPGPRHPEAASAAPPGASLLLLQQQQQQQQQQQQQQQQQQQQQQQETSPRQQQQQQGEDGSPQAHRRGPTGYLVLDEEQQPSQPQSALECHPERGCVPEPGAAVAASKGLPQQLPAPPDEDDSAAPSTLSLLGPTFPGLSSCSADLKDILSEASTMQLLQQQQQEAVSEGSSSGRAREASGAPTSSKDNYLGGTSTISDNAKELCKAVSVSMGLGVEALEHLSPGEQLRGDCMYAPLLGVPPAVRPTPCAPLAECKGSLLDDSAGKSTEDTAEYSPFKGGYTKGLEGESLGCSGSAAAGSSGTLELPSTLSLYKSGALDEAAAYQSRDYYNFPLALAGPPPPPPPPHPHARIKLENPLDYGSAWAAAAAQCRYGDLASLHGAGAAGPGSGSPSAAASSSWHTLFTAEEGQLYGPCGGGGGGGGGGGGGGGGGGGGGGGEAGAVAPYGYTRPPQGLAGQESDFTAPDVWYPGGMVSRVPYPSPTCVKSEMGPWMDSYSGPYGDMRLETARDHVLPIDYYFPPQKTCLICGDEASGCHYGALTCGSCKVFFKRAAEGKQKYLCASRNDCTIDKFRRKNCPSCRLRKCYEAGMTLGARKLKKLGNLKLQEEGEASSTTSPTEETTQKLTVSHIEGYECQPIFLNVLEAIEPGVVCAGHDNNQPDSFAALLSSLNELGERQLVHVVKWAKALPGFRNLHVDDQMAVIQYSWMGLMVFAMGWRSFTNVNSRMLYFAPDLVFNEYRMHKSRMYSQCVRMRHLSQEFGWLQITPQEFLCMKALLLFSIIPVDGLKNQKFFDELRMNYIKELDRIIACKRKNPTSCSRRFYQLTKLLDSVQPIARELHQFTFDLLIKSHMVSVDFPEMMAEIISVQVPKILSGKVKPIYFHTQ

AR = settings: cited from earlier work
human androgen receptor [1] = molecular target: T2, human androgen receptor (Homo sapiens, UniProt P10275); type: cell-based; settings: coexposure with 50 nM 5α-dihydrotestosterone; potency compared with flutamide
T2 sequence (P10275 1-920): T1 sequence (P10275 1-920)

human androgen receptor [2] = molecular target: T2, human androgen receptor; assay: new yeast androgen bioassay expressing yEGFP in response to androgens; type: cell-based
[3] = β-galactosidase bioassay, relative to 17β-testosterone, NR no response

C[C@]12CC[C@H]3[C@@H](CCC4=CC(=O)C=C[C@@]43C)[C@@H]1CC[C@@H]2O [17β-Boldenone]
RAP (hAR; [3]): 0.2

C[C@]12CC[C@@H]3c4ccc(O)cc4CC[C@H]3[C@@H]1CC[C@@H]2O [17β-Estradiol]
androgenic activity in MCRG systems (positive systems out of all) (AR): ten out of 11

C[C@]12C=CC3=C4CCC(=O)C=C4CC[C@H]3[C@@H]1CC[C@@H]2O [17β-Trenbolone]
EC50 (hAR): 0.013 µM | RAP (hAR; [3]): 0.9

Brc1ccc(Oc2cc(Br)cc(Br)c2)cc1 [BDE-39]
antiandrogenic activity (in words) (human androgen receptor [1]): clearly less antiandrogenic | agonistic response (in words) (human androgen receptor [2]): None of these four compounds were able to show an agonistic response

C[C@@H]1C[C@H]2[C@@H]3CCC4=CC(=O)C=C[C@]4(C)[C@@]3(F)[C@@H](O)C[C@]2(C)[C@@]1(O)C(=O)CO [Dexamethasone]
androgenic activity in MCRG systems (positive systems out of all) (AR): three out of four

C[C@]12CC[C@@H]3c4ccc(O)cc4CC[C@H]3[C@@H]1CCC2=O [Estrone]
agonistic response (in words) (human androgen receptor [2]): no agonistic response; also recorded: negative result

C[C@]1(O)CC[C@H]2[C@@H]3CCC4=CC(=O)CCC4=C3C=C[C@@]21C [Methyltrienolone]
RAP (hAR): 3.1

CC(=O)[C@H]1CC[C@H]2[C@@H]3CCC4=CC(=O)CC[C@]4(C)[C@H]3CC[C@]12C [Progesterone]
androgenic activity in MCRG systems (positive systems out of all) (AR): seven out of nine

CC[C@]1(O)CC[C@H]2[C@@H]3CCC4=CC(=O)CCC4=C3C=C[C@@]21CC [Tetrahydrogestrinone]
RAP (hAR; [3]): 1.0
